From patent EP0078757A1, “Imines of 2-(4-phenyl-piperazinylethyl) anilines, process for their preparation and their use in medicine” (CORTIAL S.A., priority 1981, dated 1983)
Where two headings read alike, the source gives them in different places.

How the values were obtained:
[1] = tested on: anaphylaxie passive cutanée; assay: Passive cutaneous anaphylaxis test in rats; type: in vivo, rats mâles Sprague Dawley; conditions: for ED50: read-out: DE 50 voie po
Experimental: L'activité antiallergique a été déterminée dans le test de l'anaphylaxie passive cutanée de la façon suivante. On administre à des rats mâles Sprague Dawley par voie intradermique 0,1 ml de sérum riche en IgE. Ce sérum a été fabriqué en sensibilisant des rats Sprague-Dawley par une injection ip d'ovalbumine et de suspension de Bordetella pertusis suivie 20 j après par une nouvelle injection d'ovalbumine. 24 heures après administration du sérum on injecte par voie iv 0,5 ml d'une solution contenant 8,25 mg/kg d'ovalbumine et 26,4 mg/kg de bleu d'Evans dans un tampon pH 7,05. Au bout de 30 mn les animaux sont sacrifiés; chaque papule est découpée, pesée et mise à incuber pendant 4 j à 37°C dans 15 g de formamide. La quantité de bleu d'Evans contenue dans chaque papule est déterminée par la mesure de la densité optique du mélange. Le produit à tester est administré par voie orale ou intrapéritonéale en suspension homogène en présence de tween 80, 10 mn avant l'injection déclenchante. Son activité est appréciée par le pourcentage de diminution de la quantité de bleu d'Evans ayant diffusé dans la papule. Les DE 50 de certains produits de la présente invention sont indiquées dans le tableau V.

souris Swiss = assay: Oral (intragastric) toxicity, mortality in mice; type: in vivo; conditions: mouse, solvent as in the source
Description: La mortalité induite par ces substances a été déterminée chez la souris Swiss exempte d'organismes pathogènes spécifiques. Les animaux sont stabulés en salle climatisée 24 à 48 heures avant le début de l'expérimentation. Les substances sont administrées soit par voie intragastrique en solution dans de l'huile d'olive ou du tween, soit par voie intrapéritonéale en solution dans du tween. Les résultats sont exprimés dans les tableaux I et II par le pourcentage de mortalité en fonction de la dose administrée ou par la dose induisant 50 % de mortalité (DL 50) déterminée par la méthode de Bliss.

motilité chez la souris = assay: Motility (actimeter) in mice, sedative effect; type: in vivo; conditions: ip route, mouse, Litchfield Wilcoxon method
Description: L'effet des substances sur la motilité est appréciée chez la souris en utilisant un actimètre. Les animaux sont placés dans la cage d'activométrie et à partir du nombre de déplacements enregistrés par l'appareil,on obtient pour chaque dose considérée le pourcentage de l'effet observé par rapport au lot témoin. Ces pourcentages sont reportés sur un papier à l'échelle log-probit et la méthode de Litchfield Wilcoxon permet de calculer la dose efficace 50 sédative. Le tableau VI donne les DE 50 sédatives pour un certain nombre de produits faisant l'objet de l'invention.

[2] = oral route, rat, given 10 min before challenge, decrease of Evans blue in the papule, limits in brackets

CN(C)CCCN1c2ccccc2Sc2ccc(Cl)cc21 [Chlorpromazine, reference compound]
ED50 ([1]; Rattus norvegicus, po): 4.9 mg/kg

CC(CN1c2ccccc2Sc2ccccc21)N(C)C (stereo not shown) [Prométhazine, reference compound]
ED50 [1, 2]: 2.9 mg/kg

(((trifluorométhyl-3 phényl)-4 pipérazinyl)-2 éthyl)-6 N-pyridylidène-3 benzodioxol-1,3 yl-5 amine [COR 3415]
% de mortalité en fonction de la dose exprimée en mg/kg (souris Swiss; dose 500 mg/kg): 0%
% de mortalité en fonction de la dose exprimée en mg/kg (souris Swiss; dose 750 mg/kg): 50%
% de mortalité en fonction de la dose exprimée en mg/kg (souris Swiss; dose 1000 mg/kg): 60%
% de mortalité en fonction de la dose exprimée en mg/kg (souris Swiss; dose 2000 mg/kg): 70%
DE 50 voie po [1, 2]: 20 mg/kg

(phényl-4pipérazinyléthyl)-2 N-pyridylidène-3 aniline [COR 3412]
DE 50 sédation (motilité chez la souris): 4 mg/kg
DE 50 voie ip ([1]; intraperitoneal route, rat, given 10 min before challenge, decrease of Evans blue in the papule, limits in brackets): 7,52 (3,31 - 17,38) mg/kg
DE 50 voie po [1, 2]: 11,9 (7,9 - 18,2) mg/kg
